Laboratory results: patent EP1099439A2, “Use of apo B secretion/MTP inhibitors” (Pfizer Products Inc., priority 1999, dated 2001)

System: intestinal fat absorption
Assay: Intestinal fat absorption reduction determination (gravimetric fecal fat content) in dogs
Assay type: in vivo
Conditions: male beagles, oral gavage, dosing solution 0.5 mg/mL, 1 mL per kg body weight, single daily dose on Days 0 and 5-12; fecal fat determined gravimetrically
Excerpt: Healthy, young adult (1-2 years of age) male beagles (Marshall Farms, North Rose, New York, NY 14516) weighing 11.45 - 12.45 kg at the start of the treatment period were employed as test subjects. The animals were housed individually in standard caging meeting or exceeding the USDA regulations (U.S. Department of Agriculture, Animal Welfare, Final Rules. 9 C.F.R. Parts 1-3, 1995).
The test compound was provided as a water-soluble powder. The dosing solution, administered by oral gavage, was provided employing a 0.025 M citrate buffer (approx. pH = 3) prepared using anyhdrous citric acid (0.4 g/mL) and anhydrous sodium citrate (0.1 g/mL) as the test vehicle. The dosing solution was prepared at 0.5 mg/mL activity so that 1 mL was delivered per kg body weight. Following a fourteen day acclimation period (designated as Days -14 to -1), during which time the test animals were evaluated for certain criteria including determination of body weight, physical examinations, and initial fecal specimen collection, a sixteen day evaluation study was effected. […]
Fecal specimens were collected daily over approximately 24 hours (±1 hr) prestudy and then beginning on Day -2 and terminating on Day 16. The fecal specimens so collected were weighed (total grams of bulk feces) frozen, stored at -26°C to -20°C and then analyzed for fecal fat content. […]

Row | Structure (SMILES) | reduced intestinal fat absorption in dogs
1 | CC(=O)NCCN1CCc2cc(NC(=O)c3ccccc3-c3ccc(C(F)(F)F)cc3)ccc2C1 [4'-trifluoromethyl-biphenyl-2-carboxylic acid-[2-(2-acetylaminoethyl)-1,2,3,4-tetrahydroisoquinolin-6-yl amide] | 49%
2 | CCCCN1CCc2cc(NC(=O)c3ccccc3-c3ccc(C(F)(F)F)cc3)ccc2C1 [4'-trifluoromethyl-biphenyl-2-carboxylic acid-(2-butyl-1,2,3,4-tetrahydroisoquinolin-6-yl)-amide] | 26%
